The source of these data is US12187742B2 (XRAD Therapeutics, Inc., priority 2018, dated 2025).

Structures can show the parent of a compound that is named as a salt.

What is called IC50 is the concentration at which inhibition is half-maximal.

ATM, sequence (Q13315 whole entry): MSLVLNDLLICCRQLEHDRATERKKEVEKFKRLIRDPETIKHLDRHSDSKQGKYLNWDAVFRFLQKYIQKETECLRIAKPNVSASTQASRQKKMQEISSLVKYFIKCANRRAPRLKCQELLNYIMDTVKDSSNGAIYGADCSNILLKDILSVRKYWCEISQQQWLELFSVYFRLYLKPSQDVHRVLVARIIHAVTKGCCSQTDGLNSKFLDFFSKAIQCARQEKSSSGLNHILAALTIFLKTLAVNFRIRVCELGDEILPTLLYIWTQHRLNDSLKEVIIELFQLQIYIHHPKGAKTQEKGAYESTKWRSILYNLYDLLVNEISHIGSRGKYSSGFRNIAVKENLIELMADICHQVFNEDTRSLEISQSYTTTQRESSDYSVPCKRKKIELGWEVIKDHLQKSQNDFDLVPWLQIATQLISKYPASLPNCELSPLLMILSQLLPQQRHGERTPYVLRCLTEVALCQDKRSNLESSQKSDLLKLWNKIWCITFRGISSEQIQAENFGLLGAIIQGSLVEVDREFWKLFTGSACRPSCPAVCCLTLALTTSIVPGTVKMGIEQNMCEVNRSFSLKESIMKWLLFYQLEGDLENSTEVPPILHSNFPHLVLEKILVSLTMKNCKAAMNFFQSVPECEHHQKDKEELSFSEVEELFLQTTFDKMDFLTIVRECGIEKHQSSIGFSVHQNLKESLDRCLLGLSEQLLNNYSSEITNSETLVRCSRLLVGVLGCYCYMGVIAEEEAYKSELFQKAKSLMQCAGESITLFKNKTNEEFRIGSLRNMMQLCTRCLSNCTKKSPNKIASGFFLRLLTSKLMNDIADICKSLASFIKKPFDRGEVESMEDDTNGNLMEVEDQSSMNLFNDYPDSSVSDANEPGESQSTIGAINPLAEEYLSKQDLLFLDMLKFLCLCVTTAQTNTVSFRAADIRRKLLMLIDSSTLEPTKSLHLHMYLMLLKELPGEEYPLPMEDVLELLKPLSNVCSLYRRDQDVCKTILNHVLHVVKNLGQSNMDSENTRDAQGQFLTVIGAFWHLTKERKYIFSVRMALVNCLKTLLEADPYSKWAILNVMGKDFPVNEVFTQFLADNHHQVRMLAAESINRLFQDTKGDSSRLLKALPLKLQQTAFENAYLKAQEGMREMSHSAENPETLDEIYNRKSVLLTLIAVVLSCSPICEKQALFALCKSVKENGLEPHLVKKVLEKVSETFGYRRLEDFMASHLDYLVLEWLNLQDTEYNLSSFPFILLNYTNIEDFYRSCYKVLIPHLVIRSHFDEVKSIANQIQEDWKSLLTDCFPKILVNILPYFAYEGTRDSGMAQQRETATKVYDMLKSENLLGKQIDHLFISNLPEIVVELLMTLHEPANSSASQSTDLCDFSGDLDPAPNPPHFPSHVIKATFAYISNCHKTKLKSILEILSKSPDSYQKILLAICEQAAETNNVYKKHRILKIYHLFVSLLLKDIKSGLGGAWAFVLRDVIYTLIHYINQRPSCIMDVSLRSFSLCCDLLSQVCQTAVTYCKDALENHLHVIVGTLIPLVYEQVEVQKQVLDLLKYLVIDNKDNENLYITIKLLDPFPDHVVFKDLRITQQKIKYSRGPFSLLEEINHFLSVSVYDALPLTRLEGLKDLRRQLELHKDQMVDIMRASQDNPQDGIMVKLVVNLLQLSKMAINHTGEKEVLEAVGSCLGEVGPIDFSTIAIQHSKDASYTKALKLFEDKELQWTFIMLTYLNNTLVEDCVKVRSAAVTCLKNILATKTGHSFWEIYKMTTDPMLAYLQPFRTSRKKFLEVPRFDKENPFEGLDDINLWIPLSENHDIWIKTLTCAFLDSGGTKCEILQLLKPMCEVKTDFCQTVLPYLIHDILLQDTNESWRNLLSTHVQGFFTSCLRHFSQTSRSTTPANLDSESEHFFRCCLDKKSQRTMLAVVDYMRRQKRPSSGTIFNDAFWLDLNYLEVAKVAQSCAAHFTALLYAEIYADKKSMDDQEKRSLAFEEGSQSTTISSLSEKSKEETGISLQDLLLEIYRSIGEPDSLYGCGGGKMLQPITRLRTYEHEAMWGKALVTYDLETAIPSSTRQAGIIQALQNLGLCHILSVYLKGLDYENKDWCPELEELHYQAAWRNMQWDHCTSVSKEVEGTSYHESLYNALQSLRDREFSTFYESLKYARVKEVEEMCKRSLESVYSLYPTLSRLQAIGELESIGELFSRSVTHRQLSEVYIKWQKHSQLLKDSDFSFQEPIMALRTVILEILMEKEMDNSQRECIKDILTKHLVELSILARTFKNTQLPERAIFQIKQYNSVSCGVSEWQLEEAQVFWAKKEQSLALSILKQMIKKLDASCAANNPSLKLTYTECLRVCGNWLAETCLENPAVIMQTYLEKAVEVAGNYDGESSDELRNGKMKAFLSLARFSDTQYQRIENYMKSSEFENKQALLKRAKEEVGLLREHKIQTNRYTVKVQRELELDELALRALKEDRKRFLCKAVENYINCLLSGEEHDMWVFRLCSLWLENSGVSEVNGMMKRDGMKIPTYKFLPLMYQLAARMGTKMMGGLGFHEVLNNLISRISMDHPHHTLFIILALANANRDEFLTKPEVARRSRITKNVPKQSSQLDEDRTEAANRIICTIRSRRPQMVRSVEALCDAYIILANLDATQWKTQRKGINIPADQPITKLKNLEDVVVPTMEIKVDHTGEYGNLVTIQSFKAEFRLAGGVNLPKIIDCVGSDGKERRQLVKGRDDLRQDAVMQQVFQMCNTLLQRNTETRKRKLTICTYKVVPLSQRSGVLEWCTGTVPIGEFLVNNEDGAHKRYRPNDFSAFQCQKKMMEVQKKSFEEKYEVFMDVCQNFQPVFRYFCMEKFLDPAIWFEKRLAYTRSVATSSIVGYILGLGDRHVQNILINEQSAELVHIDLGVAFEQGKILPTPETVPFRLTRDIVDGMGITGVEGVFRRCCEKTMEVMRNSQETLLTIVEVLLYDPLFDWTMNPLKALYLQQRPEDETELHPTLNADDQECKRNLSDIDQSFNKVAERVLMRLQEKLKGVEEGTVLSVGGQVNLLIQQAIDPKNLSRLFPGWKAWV

For one experiment, the target named is ATM (Homo sapiens (Human), UniProt Q13315). As to the kind of experiment: ATM in Cell Western Assay (pKAP1 in etoposide-treated MCF-7 cells). The experiment is classed as cell-based. Conditions: MCF-7 cells, etoposide 100 μM, 1 hr, pKAP1 readout. How it is done:
Assay of Compounds ATM and DNA-PK Inhibition
ATM in Cell Western Assay:
Next day, add corresponding concentration of compounds using pin tool (Echo 550), the final top concentration is 1 μM, 3-fold series dilution, total 10 doses. Then add etoposide (Sigma, #E1383) to a final concentration of 100 μM. Incubate at 37° C. for 1 hr. Fix cells by adding 25 μL of fixing solution (8% paraformaldehyde) for 20 minutes at ambient temperature. Permeabilize cells for 5 washes with 1×PBS (phosphate buffered saline) containing 0.1% Triton X-100; each wash is for 5 minutes. […] The next day, wash the plate 5 times with 1×PBST (1×PBS containing 0.1% Tween-20). […] Wash the cells for 5 times with 1×PBST (1×PBS containing 0.1% Tween-20) at ambient temperature, using gentle shaking in the dark. After the last wash
remove wash solution, turn plate upside down onto a thin paper towel and centrifuge at 1000 rpm for 1 min to absorb all wash buffer. Clean the bottom of plate with moist lint free paper. Scan plate immediately using ODYSSEY CLx (LI-COR) for the best results.
`CN(C)CCCOc1ncc(-c2ccc3ncc4c(c3c2)C2(CC2)C(=O)N4C)cc1NS(=O)(=O)c1cccnc1` [Example 85] displayed an IC50 of 1 to 100 nM.
`CN(C)CCCOc1ncc(-c2ccc3ncc4c(c3c2)C2(CC2)C(=O)N4C)cc1NS(=O)(=O)c1cccs1` [Example 120] registered a half-inhibitory concentration (IC50) of 0.5 to 1 nM.
`Cc1ccc(S(=O)(=O)Nc2cc(-c3ccc4ncc5c(c4c3)C3(CCC3)C(=O)N5C)cnc2OCCCN2C(C)(C)CCCC2(C)C)cn1` [Example 211, 6-Methyl-N-(5-(3′-methyl-2′-oxo-2′,3′-dihydrospiro[cyclobulane-1,1′-pyrrolo[2,3-c]quinolin]-8′-yl)-2-(3-(2,2,6,6-tetramethylpiperidin-1-yl)propoxy)pyridin-3-yl)pyridine-3-sulfonamide]: the IC50 was above 100 nM.
The same measure, in the same setting: to `[2H]C([2H])(COc1ncc(-c2ccc3ncc4c(c3c2)C2(CCC2)C(=O)N4C)cc1NS(=O)(=O)c1ccc(C)nc1)CN1CCCCC1` [Example 219, 6-Methyl-N-(5-(3′-methyl-2′-oxo-2′,3′-dihydrospiro[cyclobulane-1,1′-pyrrolo[2,3-c]quinolin]-8′-yl)-2-(3-(piperidin-1-yl)propoxy-2,2-d2)pyridin-3-yl)pyridine-3-sulfonamide] belongs above 100 nM.
Compound `CN(C)CCCOc1ncc(-c2ccc3ncc4c(c3c2)C2(CC2)C(=O)N4C)cc1NS(=O)(=O)c1ccc(C(F)(F)F)cc1` [Example 108] displayed an IC50 below 0.5 nM.
For the compound `CC(C)Oc1cc(-c2ccc3ncc4c(c3c2)C2(CC2)C(=O)N4C)cnc1OCCCN(C)C` [Example 38, 8′-(6-(3-(Dimethylamino)propoxy)-5-isopropoxypyridin-3-yl)-3′-methylspiro[cyclopropane-1,1′-pyrrolo[2,3-c]quinolin]-2′(3′-H)-one], the IC50 was above 100 nM.
Same read-out and setting: to `CN1C(=O)C2(CCC2)c2c1cnc1ccc(-c3cnc(OCCCN4CCCC(F)(F)C4)c(NS(C)(=O)=O)c3)cc21` [Example 298, N-(2-(3-(3,3-Difluoropiperidin-1-yl)propoxy)-5-(3′-methyl-2′-oxo-2′,3′-dihydrospiro[cyclobutane-1,1′-pyrrolo[2,3-c]quinolin]-8′-yl)pyridin-3-yl)methanesulfonamide] belongs above 100 nM; to `CN(C)CCCOc1ncc(-c2ccc3ncc4c(c3c2)C2(CCC2)C(=O)N4C)cc1NS(=O)(=O)c1cc[nH]c(=O)c1` [Example 161, N-(2-(3-(Dimethylamino)propoxy)-5-(3′-methyl-2′-oxo-2′,3′-dihydrospiro[cyclobulane-1,1′-pyrrolo[2,3-c]quinolin]-8′-yl)pyridin-3-yl)-2-oxo-1,2-dihydropyridine-4-sulfonamide], 1 to 100 nM.
On the same count and under the same terms, under `CN1C(=O)C2(CC2)c2c1cnc1ccc(-c3ccc4nc(Cl)ccc4c3)cc21` [Example 41, 8′-(2-Chloroquinolin-6-yl)-3′-methylspiro [cyclopropane-1,1′-pyrrolo [2,3-c]quinolin]-2′(3′-H)-one] stands above 100 nM.
Same read-out and setting: to `CCN1C(=O)C2(CCC2)c2c1cnc1ccc(-c3cnc(N4CC(N(C)C)C4)c(NS(C)(=O)=O)c3)cc21` [Example 336, N-(2-(3-(Dimethylamino)azetidin-1-yl)-5-(3′-ethyl-2′-oxo-2′,3′-dihydrospiro [cyclobutane-1,1′-pyrrolo[2,3-c]quinolin]-8′-yl)pyridin-3-yl) methanesulfonamide] belongs 1 to 100 nM; to `COCCN(C)C1CN(c2ncc(-c3cc4c5c(cnc4cc3F)N(C)C(=O)C53CCC3)cc2NS(C)(=O)=O)C1` [Example 314, N-(5-(7′-Fluoro-3′-methyl-2′-oxo-2′,3′-dihydrospiro[cyclobutane-1,1′-pyrrolo[2,3-c]quinolin]-8′-yl)-2-(3((2-methoxyethyl)(methyl)amino)azetidin-1-yl)pyridin-3-yl)methanesulfonamide hydrochloride], 1 to 100 nM; to `CC(Oc1cc(-c2ccc3ncc4c(c3c2)C2(CC2)C(=O)N4C)cnc1OCCCN(C)C)c1ccccc1` (centres unmarked) [Example 95, 8′-(6-(3-(Dimethylamino)propoxy)-5-(1-phenylethoxy)pyridin-3-yl)-3′-methylspiro[cyclopropane-1,1′-pyrrolo[2,3-c]quinolin]-2′(3′-H)-one], above 100 nM.

The experiment is the same for the next values; noted with them: pKAP1 in etoposide-treated MCF-7 cells.
For the compound `CC(C)NCCOc1ncc(-c2cc3c4c(cnc3cc2F)N(C)C(=O)C42CN(C)C2)cc1NS(C)(=O)=O` [Example 481, N-(5-(7′-Fluoro-1,3′-dimethyl-2′-oxo-2′,3′-dihydrospiro[azetidine-3,1′-pyrrolo[2,3-c]quinolin]-8′-yl)-2-(2-(isopropylamino)ethoxy)pyridin-3-yl)methanesulfonamide hydrochloride], the IC50 fell in the range of 1 to 100 nM.
Still for that read-out and setting: to `CC(C)NCCOc1ncc(-c2cc3c(cc2F)ncc2c3[C@]3(C[C@@H](OC(C)c4ccccc4)C3)C(=O)N2C)cc1NS(C)(=O)=O` (stereo partly drawn) [Example 398, trans-N-(5-(7′-Fluoro-3′-methyl-2′-oxo-3-(1-phenylethoxy)-2′,3′-dihydrospiro[cyclobutane-1,1′-pyrrolo[2,3-c]quinolin]-8′-yl)-2-(2-(isopropylamino)ethoxy)pyridin-3-yl)methanesulfonamide] belongs above 100 nM; to `CC(C)NCCOc1ncc(-c2cc3c(cc2F)ncc2c3[C@]3(C[C@H](N4CCOCC4)C3)C(=O)N2C)cc1NS(C)(=O)=O` [Example 471, cis-N-(5-(7′-Fluoro-3′-methyl-3-morpholino-2-oxo-2′,3′-dihydrospiro[cyclobutane-1,1′-pyrrolo[2,3-c]quinolin]-8′-yl)-2-(2-(isopropylamino)ethoxy)pyridin-3-yl)methanesulfonamide], 1 to 100 nM; to `CC(C)NCCOc1ncc(-c2cc3c4c(cnc3cc2F)N(C)C(=O)C42CN(c3ccc(C(C)(C)C)cc3)C2)cc1NS(C)(=O)=O` [Example 531, N-(5-(1-(4-(ter-Butyl)phenyl)-7′-fluoro-3′-methyl-2′-oxo-2′,3′-dihydrospiro[azetidine-3,1′-pyrrolo[2,3-c]quinolin]-8′-yl)-2-(2-(isopropylamino)ethoxy)pyridin-3-yl)methanesulfonamide], 1 to 100 nM.
For the compound `CNC[C@H]1C[C@@]2(C1)C(=O)N(C)c1cnc3cc(F)c(-c4cnc(OCCNC(C)C)c(NS(C)(=O)=O)c4)cc3c12` [Example 455, trans-N-(5-(7′-Fluoro-3′-methyl-3-((methylamino)methyl)-2′-oxo-2′,3′-dihydrospiro[cyclobutane-1,1′-pyrrolo[2,3-c]quinolin]-8′-yl)-2-(2-(isopropylamino)ethoxy)pyridin-3-yl)methanesulfonamide hydrochloride], the IC50 was above 100 nM.
On the same count and under the same terms, to `CN(C)CCCOc1c(C#N)cc(-c2ccc3ncc4c(c3c2)C2(CCC2)C(=O)N4C)cc1NS(C)(=O)=O` [Example 563, N-(3-Cyano-2-(3-(dimethylamino)propoxy)-5-(3′-methyl-2′-oxo-2′,3′-dihydrospiro[cyclobutane-1,1′-pyrrolo[2,3-c]quinolin]-8′-yl)phenyl)methanesulfonamide] belongs 1 to 100 nM; to `CC(C)NCCOc1ncc(-c2cc3c4c(cnc3cc2F)N(C)C(=O)C42CN(c3nn[nH]n3)C2)cc1NS(C)(=O)=O` [Example 550, N-(5-(7′-Fluoro-3′-methyl-2′-oxo-1-(2H-tetrazol-5-yl)-2′,3′-dihydrospiro [azetidine-3,1′-pyrrolo[2,3-c]quinolin]-8′-yl)-2-(2-(isopropylamino)ethoxy)pyridin-3-yl)methanesulfonamide], above 100 nM; to `CC(C)NCCOc1ncc(-c2cc3c(cc2F)ncc2c3[C@]3(C[C@@H](c4ccc(=O)[nH]c4)C3)C(=O)N2C)cc1NS(C)(=O)=O` [Example 443, trans-N-(5-(7′-Fluoro-3′-methyl-2′-oxo-3-(6-oxo-1,6-dihydropyridin-3-yl)-2′,3′-dihydrospiro[cyclobutane-1,1′-pyrrolo[2,3-c]quinolin]-8′-yl)-2-(2-(isopropylamino)ethoxy)pyridin-3-yl)methanesulfonamide], above 100 nM.
`CC(C)NCCOc1ncc(-c2cc3c(cc2F)ncc2c3[C@]3(C[C@@H](COC(C)C)C3)C(=O)N2C)cc1NS(=O)(=O)C(C)C` [Example 413, trans-N-{5-(7′-Fluoro-3-(isopropoxymethyl)-3′-methyl-2′-oxo-2′,3′-dihydrospiro[cyclobutane-1,1′-pyrrolo[2,3-c]quinolin]-8′-yl)-2-(2-(isopropylamino)ethoxy)pyridin-3-yl)propane-2-sulfonamide] returned an IC50 of 1 to 100 nM.
The same measure, in the same setting: under `CN1C(=O)C2(CCC2)c2c1cnc1ccc(-c3cnc(N4CC5CNCC5C4)c(NS(C)(=O)=O)c3)cc21` (centres unmarked) [Example 349, N-(2-(Hexahydropyrrolo[3,4-c]pyrrol-2(1H)-yl)-5-(3′-methyl-2′-oxo-2′,3′-dihydrospiro [cyclobutane-1,1′-pyrrolo[2,3-c]quinolin]-8′-yl)pyridin-3-yl) methanesulfonamide formate] stands 1 to 100 nM.
`CC(C)NCCOc1ncc(-c2cc3c(cc2F)ncc2c3[C@]3(C[C@@H](C(C)(C)O)C3)C(=O)N2C)cc1NS(C)(=O)=O` [Example 457, trans-N-(5-(7′-Fluoro-3-(2-bydroxypropan-2-yl)-3′-methyl-2′-oxo-2′,3′-dihydrospiro[cyclobutane-1,1′-pyrrolo[2,3-c]quinolin]-8′-yl)-2-(2-(isopropylamino)ethoxy)pyridin-3-yl)methanesulfonamide] gave an IC50 of 1 to 100 nM.
